{"source": "patent US8148392B2", "about": "“2-indolyl imidazo [4,5-d] phenanthroline derivatives and their use in the treatment of cancer” (Lorus Therapeutics Inc., priority 2005, dated 2012)", "key": {"[1]": {"system": "p21 (cyclin-dependent kinase inhibitor)", "assay": "p21 mRNA expression in HT-29 cells, real-time PCR", "assay_type": "cell-based, human", "conditions": "HT-29, 1 μM, after 4 hr", "method": "The effect of compounds of Formula I on the expression of genes regulated by KLF4 was determined as follows. Compound 3 was tested to determine its ability to increase the expression of the cell cycle regulator p21 (cyclin-dependent kinase inhibitor) in HT-29 colon carcinoma cells. […] HT-29 cells were incubated with DMSO (vehicle control), 35 μM ZnCl2, 1 μM or 4 μM TPEN, or 0.5 μM, 1 μM, 4 μM, or 7.5 μM compound 3 for 16 hours, and mRNA was extracted from the cells. The expression of p21 mRNA was analyzed by real-time polymerase chain reaction using the comparative CT method. This assay was carried out using methods described in Example 19.\nThe expressions of p21 gene and proteins were examined following treatment with compound 3. Gene expression of p21 in HT-29 cells treated with 1 μM compound 3 was determined at the indicated times as follows. Total RNA was extracted and gene expression level was determined by RT-PCR (FIG. 42A). The level of p21 protein in total cell lysate was measured by ELISA (FIG. 42B) as follows. HT-29 cells were treated with 1 μM compound 3 with and without 20 μM MG-132 (proteasome inhibitor) for indicated time."}, "[2]": {"system": "copper transporter, Ctrl also known as SLC31A1", "assay": "Copper transporter Ctr1 (SLC31A1) gene expression in HT-29 cells, RT-PCR", "assay_type": "cell-based, human", "method": "The effect of compound 3 and compound 7 treatment on the expressions of a zinc-storage protein meallothionein 1A (MT1A) (FIG. 29A), a copper transporter, Ctrl also known as SLC31A1 (FIG. 29B) and an iron transporter; transferrin receptor 1 (TfR1) (FIG. 29C) were measured and compared with a known zinc chelator TPEN, a copper chelator tetramine and an iron chelator DFO, respectively. Despite in vitro chelation of Cu^+2, increase in copper-sensitive gene after compound 3 treatment was transient."}, "KLF4 [3]": {"system": "KLF4", "assay": "KLF4 DNA binding activity, EMSA, HT-29 nuclear extracts", "assay_type": "cell-based, human", "method": "Based on overlapping transcription factor binding sites on KLF4 gene promoter region (as shown in FIG. 32A), MTF-1 binding may favor increased binding of other KLF4 inducers; Sp1 and KLF4.\nElectrophoretic mobility shift assay (EMSA) was performed as follows. Nuclear extracts from HT-29 cells (10^7 cells in 100 mm culture dish in each experimental group) were prepared using nuclear extraction kit (Panomics, Redwood City, Calif.). EMSA assays were performed using KLF4 and Sp1 EMSA “Gel-Shift” kits (Panomics), by following the manufacturer's instruction. Briefly, 5 μg of nuclear extract was used for each binding reaction. After 30 min of binding reaction, the samples were separated on 6% polyacrylamide gel at 4° C. at 120 V, and transferred to BrightStar™-Plus positively charged nylon membrane. The biotin-labeled probes on the membrane were visualized by using ECL detection system (Panomics)."}, "KLF4 [4]": {"system": "KLF4", "assay": "KLF4 binding to Cyclin D1 promoter, ChIP, HT-29", "assay_type": "cell-based, human", "conditions": "HT-29, ChIP", "method": "Based on overlapping transcription factor binding sites on Cyclin D1 gene promoter region (FIG. 33A), increased binding of a negative regulator KLF4 may replace the binding of a positive regulator Sp1. In vivo KLF4 and Sp1 binding to Cyclin D1 promoter was shown by chromatin immuno-precipitation assay (ChIP) (FIG. 33B).\nChromatin immunoprecipitation (ChIP) was performed as follows. Cell lysates from HT-29 cells (5.5×10^5 cells in three 15 cm-culture plates in each experimental group) were prepared at the end of the indicated experiments, and ChIP assays were performed using anti-KLF4 and anti-Sp1 antibodies (Santa Cruz Biotechnology Inc.) and ChIP-ITTM kit (Active Motif, Carlsbad, Calif.) by following the manufacturer's instruction. The primers encompassing-231 to -92 region of Cyclin D1 promoter; 5′ primer (5′-CGGACTACAGGGGCAA-3′) [SEQ ID NO:1] and 3′ primer (5′-GCTCCAGGACTTTGCA-3′) [SEQ ID NO:2] were synthesized at Invitrogen."}, "KLF5": {"system": "KLF5", "assay": "KLF5 gene expression in HT-29 cells, RT-PCR", "assay_type": "cell-based, human", "conditions": "HT-29, 1 μM, after 4 hr", "method": "HT-29 cells were treated with 1 μM compound 3 for indicated time (FIG. 41B). Total RNA was extracted and gene expression level was determined by RT-PCR."}, "[5]": {"system": "MT-1 isolated from rabbit liver", "assay": "Chelation of zinc from metallothionein MT-1, PAR colorimetric zinc assay", "assay_type": "biochemical", "conditions": "25 μM MT, compound 0.15 to 60 μM, 15 min", "source_text": "Intracellular zinc exists as a labile pool, loosely bound to storage proteins metallothioneins (MT), which store up to 7 or 8 zinc per molecule. The labile zinc pool donates zinc to enzymes or transcription factors, which require reversible binding with zinc for their full activity (Tapiero and Tew (2003) Biomed Pharmacother 57(9): 399-411). The efficiency of compound 3 to remove zinc from MT was investigated. MT-1 isolated from rabbit liver, containing mainly MT-1a and MT-2e with ˜7 zinc per molecule in ≧95% of MT was purchased from Alexis Biochemicals (Lausen, Switzerland). The content of zinc in MT was measured in vitro using 4-(2-pyridylazo) resorcinol (PAR) colorimetric zinc assay as described in the preceding Examples. The change in absorbance of PAR after PAR-zinc ion complex formation was measured at 500 nm (Dinkova-Kostova et al., (2005) Biochemistry 44(18): 6889-6899). To determine chelation of zinc from MT-1 by compound 3 in vitro, MT-125 μM in […] volume of 0.2M Tris-HCl, pH 7.5 was added to 96-well plate. Compound 3 (0.15 to 60 μM) in 80% acetonitrile/20% DMSO was added to MT-1 for 15 min at room temperature. PAR (200 μM in 0.2M Tris-HCl, pH 7.5) was added and the color development of PAR-zinc complex was measured by a multi-well spectrophotometer at 500 nm as shown in FIG. 47."}}, "data": [{"smiles": "Cc1[nH]c2ccccc2c1-c1nc2c3cccnc3c3ncccc3c2[nH]1", "note": "[Compound 3]", "values": [{"measurement": "p21 gene expression, change", "setting": "[1]", "value": "Increased gene expression of p21"}, {"measurement": "copper-sensitive gene expression", "setting": "[2]", "value": "transient"}, {"measurement": "DNA binding activity of KLF4", "setting": "KLF4 [3]", "value": "Increased DNA binding activities"}, {"measurement": "KLF4 binding to Cyclin D1 promoter", "setting": "KLF4 [4]", "value": "Increased KLF4"}, {"measurement": "KLF5 gene expression", "setting": "KLF5", "value": "decrease in KLF5 gene expression"}, {"measurement": "PAR absorbance of MT (removal of zinc from metallothionein)", "setting": "[5]", "value": "Dose-dependent decreases in PAR absorbance"}]}]}
